Laboratory results published in PMC11242892, “Ceanothanes Derivatives as Peripheric Anionic Site and Catalytic Active Site Inhibitors of Acetylcholinesterase: Insights for Future Drug Design” (International Journal of Molecular Sciences, 2024).
Where “and” joins values, the source holds several entries; their conditions need not be identical. Identical values can stand only once. Entries after “also recorded” stand apart in the source; their conditions may differ.

Legend:
[1] = target: T1, acetylcholinesterase (AChE from Electrophorus electricus) (Electrophorus electricus, UniProt O42275); experiment: Ellman assay, AChE inhibitory activity; type: biochemical; details: IC50 ± SEM, Ellman's assay
T1 construct: purchased Sigma-Aldrich
T1 sequence (O42275 24-633): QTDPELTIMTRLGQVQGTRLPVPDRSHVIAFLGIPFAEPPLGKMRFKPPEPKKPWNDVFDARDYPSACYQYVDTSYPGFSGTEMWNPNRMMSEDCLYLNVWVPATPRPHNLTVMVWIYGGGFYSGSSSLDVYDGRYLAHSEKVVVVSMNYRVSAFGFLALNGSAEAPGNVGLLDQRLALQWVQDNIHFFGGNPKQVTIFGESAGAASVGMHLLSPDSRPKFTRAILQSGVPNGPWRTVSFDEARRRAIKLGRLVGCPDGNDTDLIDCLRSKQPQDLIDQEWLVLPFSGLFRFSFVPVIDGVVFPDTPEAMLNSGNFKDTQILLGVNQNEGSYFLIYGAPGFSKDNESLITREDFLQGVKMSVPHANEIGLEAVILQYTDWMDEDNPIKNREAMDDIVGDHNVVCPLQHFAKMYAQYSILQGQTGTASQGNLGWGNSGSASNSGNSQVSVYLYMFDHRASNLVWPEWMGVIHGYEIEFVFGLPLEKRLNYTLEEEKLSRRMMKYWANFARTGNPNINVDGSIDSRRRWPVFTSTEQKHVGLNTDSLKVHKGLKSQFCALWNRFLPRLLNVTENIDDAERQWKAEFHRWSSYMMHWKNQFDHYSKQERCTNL
Method: The Ellman assay was used to test acetylcholinesterase (AChE from Electrophorus electricus) inhibition activity. A mixture of the DTNB (125 µL), enzyme solution (25 µL), and compound solution (25 µL) was prepared and incubated at room temperature for 20 min. All the assays were under 0.1 M KH2PO4/K2HPO4 buffer, pH 8.0. The substrate was added to start the enzymatic reaction. […] All measurements were performed fivefold as triplicate. The compounds were assayed in a dilution interval of 15 to 500 µg/mL.

[2] = target: T1, acetylcholinesterase (AChE from Electrophorus electricus); experiment: Kinetic characterization of AChE inhibition (Lineweaver–Burk); type: biochemical; details: for Vmax: Lineweaver–Burk; for α: alpha calculated from Lineweaver–Burk plots; for type of inhibition: from Lineweaver–Burk plots and alpha
Method: To investigate the inhibition mechanism of the tested compounds on AChE, a kinetic analysis was performed. The experiments were carried out using a combination of four substrate concentrations and three inhibitor concentrations with the aim to obtain a double reciprocal plot (Lineweaver–Burk), in which each point is the mean of three different experiments. A parallel control with no inhibitor in the mixture allowed adjusted activities to be measured at various times.

PAS of EeAChE = target: T2, PAS of EeAChE (Electrophorus electricus, UniProt O42275); experiment: Propidium iodide displacement assay; type: binding; details: five units EeAChE, 1 µM propidium iodide solution, triplicate
T2 construct: purchased Sigma-Aldrich
T2 sequence (O42275 24-633): as above
Method: By interacting with soluble β-amyloid peptides and facilitating their aggregation, the AChE peripheral anionic site (PAS) at the gorge’s edge contributes to AChE’s pro-aggregation capacity toward β-amyloid. […] The potential ability of compounds to bind PAS and thus block the pro-aggregation activity of AChE is possible to evaluate through competitive propidium displacement from the PAS of AChE.
The percentage inhibition was calculated by the following expression: 100 − (IFi/IF0 × 100), where IF1 and IF0 correspond to fluorescence intensities with and without the test compound, respectively. Each assay was carried out in triplicate independent experiments.

Question: With `C=C(C)[C@@H]1CC[C@]2(C(=O)O)CC[C@]3(C)[C@H](CC[C@@H]4[C@@]5(C)[C@@H](C(=O)O)[C@H](OCCCCBr)C(C)(C)[C@@H]5CC[C@]43C)[C@@H]12` [Compound 6, 3-(4-Bromobutoxy)-ceanothic Acid] as the compound, how does the IC50 ([1]; pH 8.0, average of triplicate) read?
Answer: The IC50 was 8.4 µM and 8 µM.

Question: And the IC50 ([1]; pH 8.0, triplicate)?
Answer: Its IC50 is 8.4 µM.

Question: And the Vmax [2]?
Answer: Its Vmax is 0.0086.

Question: What about the α [2] of the same compound?
Answer: Its α is 0.98.

Question: And the type of inhibition [2]?
Answer: Its type of inhibition is “noncompetitive inhibitors”.

Question: What about the “% Displacement of Propidium Iodide (Mean ± SEM)” value (from here on “% Displacement … (Mean ± SEM)”) (PAS of EeAChE) of the same compound?
Answer: The value was 31.51 ± 1.38%.

Question: With `C=C(C)[C@@H]1CC[C@]2(C(=O)O)CC[C@]3(C)[C@H](CC[C@@H]4[C@@]5(C)[C@@H](C(=O)O)[C@H](O)C(C)(C)[C@@H]5CC[C@]43C)[C@@H]12` [Compound 1, Ceanothic acid] as the compound, how does the IC50 ([1]; pH 8.0, average of triplicate) read?
Answer: The IC50 was 47.4 µM and 47 µM.

Question: What about the IC50 ([1]; pH 8.0, triplicate) of the same compound?
Answer: The IC50 was 47.4 µM.

Question: And the “% Displacement … (Mean ± SEM)” value (PAS of EeAChE)?
Answer: Its value is 24.24 ± 0.32%.

Question: How did the IC50 ([1]; pH 8.0, average of triplicate) turn out when `C=C(C)[C@@H]1CC[C@]2(C(=O)OC)CC[C@]3(C)[C@H](CC[C@@H]4[C@@]5(C)[C@@H](C(=O)OC)[C@H](O)C(C)(C)[C@@H]5CC[C@]43C)[C@@H]12` [Compound 3, Ceanothic 2, 28-Dimethyl Ester] was run?
Answer: The IC50 was 14.4 µM and 14 µM.

Question: What about the IC50 ([1]; pH 8.0, triplicate) of the same compound?
Answer: Its IC50 is 14.4 µM.

Question: And the Vmax [2]?
Answer: The Vmax was 0.0133.

Question: What about the α [2] of the same compound?
Answer: The α was 2.98.

Question: And the type of inhibition [2]?
Answer: The type of inhibition was “mixed inhibitors”.

Question: What about the “% Displacement … (Mean ± SEM)” value (PAS of EeAChE) of the same compound?
Answer: The value was 27.01 ± 0.59%.

Question: What does the source list for `C=C(C)[C@@H]1CC[C@]2(C(=O)O)CC[C@]3(C)[C@H](CC[C@@H]4[C@@]5(C)[C@@H](C(=O)O)[C@H](OC(=O)c6ccco6)C(C)(C)[C@@H]5CC[C@]43C)[C@@H]12` [Compound 7, 3-O-Furoyl-ceanothic Acid]?
Answer: IC50 ([1]; pH 8.0, average of triplicate): 17.9 µM and 18 µM; IC50 ([1]; pH 8.0, triplicate): 17.9 µM; Vmax [2]: 0.0205; α [2]: 10.39; type of inhibition [2]: mixed inhibitors; also recorded: mixed-competitive-type inhibitor; % Displacement of Propidium Iodide (Mean ± SEM) (PAS of EeAChE): 28.50 ± 2.55%

Question: For `C=C(C)[C@@H]1CC[C@]2(C(=O)O)CC[C@]3(C)[C@H](CC[C@@H]4[C@@]5(C)[C@@H](C(=O)O)C(=O)C(C)(C)[C@@H]5CC[C@]43C)[C@@H]12` [Compound 2, 3-oxo-Ceanothic Acid], which IC50 ([1]; pH 8.0, average of triplicate) is on record?
Answer: The IC50 was 5.28 µM and 5.3 µM.

Question: And the IC50 ([1]; pH 8.0, triplicate)?
Answer: The IC50 was 5.28 µM.

Question: What about the Vmax [2] of the same compound?
Answer: The Vmax was 0.0032.

Question: And the α [2]?
Answer: Its α is 1.01.

Question: And the type of inhibition [2]?
Answer: Its type of inhibition is “noncompetitive inhibitors”.

Question: What about the “% Displacement … (Mean ± SEM)” value (PAS of EeAChE) of the same compound?
Answer: The value was 28.71 ± 0.99%.
